We go through one compound from patent US10980812B2, “3-(4-((4-(morpholinomethyl-benzyl)oxy)-1 -oxoisoindolin-2-yl)piperidine-2,6-dione for the treatment of systemic lupus erythematosus” (Celgene Corporation, priority 2014, dated 2021).

For assay [1], the system named is anti-phospholipid autoantibodies, SLE PBMC. The assay can be described thus: Anti-phospholipid autoantibody production in cultures of SLE PBMC (ELISA). The class given is cell-based. The note with it: Homo sapiens, N=8. The procedure: (§1) PBMCs were purified from human buffy coats using Ficoll-Paque method. CD19+ B cells were isolated from PBMC by following EasySep Human B cell enrichment cocktail protocol (StemCell Technologies Catalog #19054). Fresh B cell cocktail was prepared by adding 50 μg/mL of human transferrin to B cell medium (Iscove's medium with 10% PFBS, 1% P/S, and 5 μg/mL human insulin). The required volume of medium needed for the experiment was filtered through a 0.22 micron filter. B cell differentiation cocktail (final concentration): recombinant human Interleukin (IL)-2 (20 U/mL), IL-10 (50 ng/mL), IL-15 (10 ng/mL), CD40 Ligand/TNFSF5/histidine-tagged (50 ng/mL), polyHistidine mouse IgG1 antibody (5 μg/mL), and ODN 2006-Human TLR9 ligand (10 μg/mL). CD19+ cells were pretreated with Compound 1A or a Syk inhibitor or 0.1% DMSO for 1 hr, then incubated with B-cell differentiation medium for indicated times.
(§2) Whole blood samples from patients identified with SLE were obtained from Sanguine Biosciences; Inc. the blood was diluted with sterile Dulbecco's phosphate buffered saline solution (DPBS) and placed into three 50-mL conical tubes. […] Cell culture supernatants were harvested and analyzed for autoantibodies using an Anti-double stranded DNA antibody ELISA kit (Orgentec ORG 604S) and an Anti-Cardiolipin/Phospholipid ELISA kit (Orgentec ORG-529).
In general terms: ELISA stands for enzyme-linked immunosorbent assay.

Assay [2] deals with Aiolos. The experiment in a line: B cell intracellular Aiolos after single doses in healthy volunteers. The class given is in vivo, human. The procedure:
(§3) Healthy volunteers were administered placebo (n=10) or Compound 1A at doses of 0.03 mg, 0.1 mg, 0.3 mg, 1 mg, or 2 mg (N=6 each). Blood samples were drawn prior to dosing, or 3 hr, 12 hr, and 24 hr after dosing. Blood samples were lysed and fixed immediately by mixing 1 volume of blood with 20 volumes of 1× Lyse/Fix buffer (BD Biosciences, cat#558049) and mixing thoroughly by inverting the tube several times. This sample mix was incubated in a 37° C. water bath for 10 minutes, and the cells were pelleted by centrifugation at 800×g for 5 minutes to remove the supernatant by aspiration. The cells were washed twice with 2 mL of cold phosphate buffer saline (PBs), then permeabilized by adding 2 mL of cold BD Cytofix/cytoperm buffer and incubated on ice for 15 minutes. The cells were centrifuged than washed twice with BD perm/wash buffer, then resuspended in 40 ul of BD perm/wash buffer. Cells were stained with anti-CD3 or anti-CD19 antibody, and 20 ul of anti-Aiolos Ab (Santa Cruz Santa Cruz, rabbit polyclonal IgG, cat #sc-101982 at 1:200 dilution with staining buffer), or 20 uL of appropriate isotype controls to cells. Cells were mixed thoroughly and incubated at room temperature for 30 minutes in the dark, washed once with BD perm/wash buffer, then resuspended in 80 ul of BD perm/wash buffer, and 20 uL of secondary antibody was added before analysis on a flow cytometer.

A further assay deals with IL-1β. The experiment in a line: Ex vivo IL-1β production in lipopolysaccharide-stimulated whole blood of dosed healthy volunteers. More on the design: species or system human. The note with it: 12 hours postdose. The source says:
Whole blood was stimulated with lipopolysachharide and analyzed for IL-1β using the LPS TruCulture system (Part number 782-001087) by Myriad Rules Based Medicine (Austin, Tex.).

Another assay relates to CD19+ B cells. The assay can be described thus: Peripheral blood B cell counts in healthy volunteers. The class given is in vivo. The note with it: Homo sapiens. The method, then: as §3, with “Blood samples were drawn prior to dosing, or 3 hr, 12 hr, and 24 hr after dosing.” left out
Absolute B cell counts in the peripheral blood were measured by flow cytometry with anti-CD19 antibody as described above.

Another assay has as its system IL-2. The assay can be described thus: Ex vivo IL-2 production in anti-CD3-stimulated whole blood of dosed healthy volunteers. Also on record: species or system human. The note with it: 12 hours postdose on Day 1. The source says:
Whole blood was stimulated with anti-CD3 antibody and analyzed for IL-2 using the CD3 TruCulture system (Part number 782-001202) by Myriad Rules Based Medicine (Austin, Tex.).

The next assay relates to CD3+ T cells. The assay can be described thus: Peripheral blood T cell counts in healthy volunteers. The class given is in vivo, human. The procedure: as §3
Absolute T cell counts in the peripheral blood were measured by flow cytometry with anti-CD3 antibody as described above.

Assay [3] concerns Aiolos. The experiment in a line: Aiolos protein level in whole blood leukocyte subsets, flow cytometry. The class given is cell-based, human. The note with it: 1, 10, 100 nM, 18 hrs; CD19+ B cells, CD3+ T cells, CD14+ monocytes, granulocytes. The procedure: (§4) Human heparinized whole blood from normal healthy volunteers (Bioreclamation, Westbury, N.Y.) was treated with 0.1% DMSO and Compound 1A (1, 10, 100 nM) for 18 hrs at 37° C., 5% CO2. After 18 hrs, the blood was lysed and fixed with 1× Lyse/Fix Buffer (BD Biosciences) for 10 minutes at 37° C. Washed cells with cold PBS and cells were first multicolor stained with mouse anti-human CD3-PE mAb, mouse anti-human CD19-APC mAb and mouse anti-human-CD14-PerCP mAb (all from BD Biosciences) to identify CD3+ T cells, CD19+ B cells and CD14+ monocytes, respectively. The cells were then permeabilized by adding BD Perm/Wash Buffer I. Blocked non-specific binding by added FcR Blocking Reagent (Miltenyi Biotech) for 10 minutes prior to staining for intracellular Aiolos or Ikaros content. The cells were then stained with rabbit anti-human Aiolos polyclonal Ab (Santa Cruz, 1:200 dilution in Perm/Wash Buffer) or anti-human Ikaros polyclonal Ab (Santa Cruz, 1:50 dilution in Perm/Wash Buffer), followed by a goat-anti-rabbit mAb-AF488 Ab (Invitrogen, at 1:400 dilution in Perm/Wash Buffer) to test the intracellular Aiolos or Ikaros levels. […] Aiolos and Ikaros protein levels in B cells, T cells, monocytes and granulocytes were analyzed by FACSCanto with FACSDiva 6 (BD Biosciences) based on the gating of CD3+ cells, CD19+ cells, CD14+ cells and granulocytes (FSC/SSC). […]
For orientation: In flow cytometry, cells or beads pass a laser one at a time.

Assay [4] has as its system Aiolos. The experiment in a line: T cell intracellular Aiolos after single doses in healthy volunteers. The class given is in vivo, human. The note with it: 12 hours postdose. The procedure:
as §3

For another assay, the system named is Ikaros. The experiment in a line: Ikaros protein level in whole blood leukocyte subsets, flow cytometry. The class given is cell-based, human. The note with it: 1, 10, 100 nM, 18 hrs; CD19+ B cells, CD3+ T cells, CD14+ monocytes, granulocytes. The procedure:
as §4

Assay [5] deals with anti-dsDNA autoantibodies, SLE PBMC. The experiment in a line: Anti-dsDNA autoantibody production in cultures of SLE PBMC (ELISA). The class given is cell-based. The note with it: Homo sapiens, N=9. The procedure:
as §1, §2

Read-outs that look alike come from different tables or passages of the source.

For the compound `O=C1CC[C@H](N2Cc3c(OCc4ccc(CN5CCOCC5)cc4)cccc3C2=O)C(=O)N1` [Compound 1A, (S)-3-[4-(4-morphlin-4-ylmethylbenzyloxy)-1-oxo-1,3-dihydro-isoindo-2-yl]piperidine-2,6-dione], the IC50 in assay [1] and in assay [5] was approximately 10 nM throughout. Besides, the “B cell intracellular Aiolos, percent of baseline” value amounted to 24.8% with Aiolos [2] (0.3 mg single dose, 24 hours postdose); 28.2% with Aiolos [2] (1 mg single dose, 12 hours postdose); 25.0% in the assay with Aiolos [2] (2 mg single dose, 12 hours postdose). Further, the “maximum IL-1β response, mean percent of baseline” value in the assay with IL-1β (0.3 mg) was determined as 42.2%; with IL-1β (1 mg), 21.8%; in the assay on IL-1β (2 mg) it was 16.3%. The Emax in the assay on CD19+ B cells (48 h, 1 mg, Day 2, read-out: absolute CD19+ cells, mean percent of baseline (maximum response)) came to 67.3%; in the assay on CD19+ B cells (72 h, 0.3 mg, Day 3, read-out: absolute CD19+ cells, mean percent of baseline (maximum response)), 73.5%; in the assay on CD19+ B cells (72 h, 2 mg, Day 3, read-out: absolute CD19+ cells, mean percent of baseline (maximum response)) it was 51.3%. Also, the “maximum IL-2, mean percent of baseline” value was 315% with IL-2 (0.3 mg), 973% in the assay on IL-2 (1 mg) and 915% in the assay with IL-2 (2 mg). In addition, the “peripheral blood T cell counts, percent of baseline” value with CD3+ T cells (0.3 mg, Day 2) was 84.1%; in the assay on CD3+ T cells (1 mg, Day 2), 79.4%; with CD3+ T cells (2 mg, Day 5), 73.8%. Besides, in the assay on Aiolos [3], the “Aiolos protein levels in whole blood leukocyte subsets” value is on record as “reduced”. The “T cell intracellular Aiolos, percent of baseline” value came to 22.3% in the assay on Aiolos [4] (1 mg single dose) and 26.1% in the assay on Aiolos [4] (2 mg single dose). The “Ikaros protein levels in whole blood leukocyte subsets” value in the assay on Ikaros is “reduced”.

In general, IC50 refers to the concentration at which inhibition is half-maximal. A high value points to a need for much substance.
